Where two headings read alike, the source gives them in different places.
Columns and labels:
[1] = target: T1, hCB2 cannabinoid receptor (Homo sapiens, UniProt P34972); test: Competition binding assay, hCB2 membranes, [3H]-CP-55,940
T1 construct: purchased PerkinElmer (Belgium)
Experimental: hCB1 and hCB2 membranes were purchased from PerkinElmer (Belgium). […] Glass fiber filters were purchased from Whatman (Maidstone, U.K.), while Aqualuma was from PerkinElmer (Schaesberg, The Netherlands). Stock solutions of the compounds were prepared in DMSO and further diluted […] with the binding buffer to the desired concentration. Final DMSO concentrations in the assay were less than 0.1%.
The test compounds were present at varying concentrations and the non-specific binding was determined in the presence of 10 μM HU-210. After 1 h the incubation was stopped and the solutions were rapidly filtered through 0.5% PEI pretreated GF/B glass fiber filters on a M-48T Brandell cell harvester and washed twice with 5 mL ice-cold binding buffer without serum albumin. […] Assays were performed at least in triplicate.
(§1) IC50 and EC50 values were determined by non-linear regression analysis performed using the GraphPad prism 4.0 program (GraphPad Software, San Diego). The Ki values (expressed as pKi) were calculated based on the Cheng-Prusoff equation: Ki=IC50/(1+L/Kd). Statistical signification of [^35S]-GTPγS assay results was assessed using an one-way ANOVA followed by a Dunett post-test.

[2] = target: T2, hCB2 receptor (Homo sapiens, UniProt P34972); test: [35S]-GTPγS binding assay (CB2 functional activity assay); type: biochemical; conditions: for EC50: [35S]-GTPγS binding, hCB2
T2 construct: purchased PerkinElmer (Belgium)
Experimental: The Emax value is determined by a CB2 functional activity assay (19, 20).
[^35S]-GTPγS binding Assays
[^35S]-GTPγS (1173 Ci/mmol) was purchased from Amersham (Roosendaal, The Netherlands). The binding experiments were performed at 30° C. in plastic tubes containing 40 μg protein in 0.5 mL (final volume) of binding buffer (50 mM Tris-HCl, 3 mM MgCl2, 1 mM EDTA, 100 mM NaCl, 0.1% bovine serum albumin, pH 7.4) supplemented with 20 μM GDP.
The assay was initiated by the addition of [^35S]-GTPγS (0.05 nM, final concentration). The tubes were incubated for 1 h. The incubations were terminated by the addition of 5 mL ice-cold washing buffer (50 mM Tris-HCl, 3 mM MgCl2, 1 mM EDTA, 100 mM NaCl). The suspension was immediately filtered through GF/B filters using a 48-well Brandell cell harvester and washed twice with the same ice-cold buffer. The radioactivity on the filters was counted as mentioned above. Assays were performed in triplicate.
as §1

[3] = system: TNBS-induced colitis; test: TNBS-induced colitis in mice; type: in vivo, C57B16 mice; conditions: for MPO activity in colon (neutrophils content): TNBS only 20±5; for TNF-alpha mRNA expression in colon: TNBS only 26±8; for IL-1beta mRNA expression in colon: TNBS only 1610±1041; for colitis macroscopic score (Wallace criteria, scale 0 to 10): intraperitoneally once daily from 3 days before TNBS, killed 3 days after TNBS, TNBS only 3.1±0.3; for histological score (Ameho criteria, scale 0 to 6): intraperitoneally once daily, TNBS only 3.7±1
[4] = hCB2 membranes, [3H]-CP-55,940 (1 nM), 30° C., 1 h, read-out: Ki CB2
[5] = CB2 functional activity assay, basal = 100%, read-out: Emax, bound stated
[6] = percentage of stimulation of [35S]-GTPγS binding, basal value set at 100%, read-out: Functional activity at CB2 EMax
[7] = read-out: binding affinity (Ki) at the CB2 receptor

T1 sequence (P34972 whole entry): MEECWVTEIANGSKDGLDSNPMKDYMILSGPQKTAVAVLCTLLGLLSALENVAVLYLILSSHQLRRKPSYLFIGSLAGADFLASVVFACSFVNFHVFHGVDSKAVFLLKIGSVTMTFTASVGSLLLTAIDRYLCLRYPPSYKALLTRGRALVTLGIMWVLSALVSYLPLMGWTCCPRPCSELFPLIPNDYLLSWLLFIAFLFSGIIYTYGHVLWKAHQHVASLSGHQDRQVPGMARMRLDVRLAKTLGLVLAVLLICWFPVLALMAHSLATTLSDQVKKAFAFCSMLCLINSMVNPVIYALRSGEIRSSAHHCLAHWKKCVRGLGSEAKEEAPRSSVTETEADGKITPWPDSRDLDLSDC
T2 sequence (P34972 whole entry): as above

Compound | Ki [1, 4] | melting point | functional character at the CB2 receptor (agonist / inverse agonist) ([2]; CB2 functional activity assay) | Emax [2, 5] | EC50 [2] | Emax [2, 6] | also measured
CCCCCn1cc(C(=O)NC2CCCc3ccccc32)c(=O)cc1-c1ccccc1 (racemic) [Compound 14, (R,S)-4-oxo-1-pentyl-6-phenyl-N-3-(1-(1,2,3,4-tetrahydronaphthyl))-1,4-dihydropyridine-3-carboxamide] | 30.9 ± 3.3 nM | 139 °C | inverse agonists | < 62% | 5.7 ± 0.7 nM | 40 ± 1% | 
CCn1cc(C(=O)NC(C)C23CC4CC(CC(C4)C2)C3)c(=O)cc1-c1ccccc1 [Compound 5, (R,S)—N-3-(1-(1-Adamantyl)ethyl)-1-ethyl-4-oxo-6-phenyl-1,4-dihydropyridine-3-carboxamide] | 414 ± 61 nM | 224 °C |  |  |  |  | Ki [1, 7]: < 500 nM
CCCCCn1cc(C(=O)NC(C)C23CC4CC(CC(C4)C2)C3)c(=O)cc1-c1ccccc1 [Compound 6, (R,S)—N-3-(1-(1-Adamantyl)ethyl)-4-oxo-1-pentyl-6-phenyl-1,4-dihydropyridine-3-carboxamide] | 14.3 ± 2.1 nM | 169 °C | inverse agonists | < 62% | 6.5 ± 1.5 nM | 46 ± 3% | Ki [1, 7]: < 500 nM
CC(NC(=O)c1cn(-c2ccccc2)c(-c2ccccc2)cc1=O)C12CC3CC(CC(C3)C1)C2 [Compound 7, (R,S)—N-3-(1-(1-Adamantyl)ethyl)-1,6-diphenyl-4-oxo-1,4-dihydropyridine-3-carboxamide] |  | > 250 °C |  |  |  |  | Ki [1, 7]: > 500 nM
CCCCCn1cc(C(=O)NCC23CC4CC(CC(C4)C2)C3)c(=O)cc1-c1ccccc1 [Compound 8, N3-((1-Adamantyl)methyl)-4-oxo-1-pentyl-6-phenyl-1,4-dihydropyridine-3-carboxamide] | 23.3 ± 1.9 nM | 154 °C |  |  |  |  | 
CCCCCn1cc(C(=O)NC23CC4CC(C)(CC(C)(C4)C2)C3)c(=O)cc1-c1ccccc1 [Compound 9, N3-(1-(3,5-Dimethyl)adamantyl)-4-oxo-1-pentyl-6-phenyl-1,4-dihydropyridine-3-carboxamide] | 6.6 ± 0.7 nM | 133 °C | inverse agonists | < 62% | 5.8 ± 1.1 nM | 41 ± 2% | 
CCCCn1cc(C(=O)NC23CC4CC(CC(C4)C2)C3)c(=O)cc1-c1ccccc1 [Compound 10, N3-(1-Adamantyl)-1-butyl-4-oxo-6-phenyl-1,4-dihydropyridine-3-carboxamide] | 18.4 ± 1.3 nM | 146 °C |  |  |  |  | 
CCCCCn1cc(C(=O)NC23CC4CC(CC(C4)C2)C3)c(=O)cc1-c1ccccc1 [Compound 11, N3-(1-Adamantyl)-4-oxo-1-pentyl-6-phenyl-1,4-dihydropyridine-3-carboxamide] | 4 ± 0.4 nM | 145 °C |  |  |  |  | 
CCCCCCn1cc(C(=O)NC23CC4CC(CC(C4)C2)C3)c(=O)cc1-c1ccccc1 [Compound 12, N3-(1-Adamantyl)-1-hexyl-4-oxo-6-phenyl-1,4-dihydropyridine-3-carboxamide] | 13.5 ± 0.9 nM | 167 °C |  |  |  |  | 
CCCCCn1cc(C(=O)NC2CCCCC2)c(=O)cc1-c1ccccc1 [Compound 13, N3-(Cyclohexyl)-4-oxo-1-pentyl-6-phenyl-1,4-dihydropyridine-3-carboxamide] | 10.6 ± 1.1 nM | 120 °C | inverse agonists | < 62% | 1.9 ± 0.5 nM | 62 ± 2% | 
CCCCCn1cc(C(=O)N[C@@H]2CCCc3ccccc32)c(=O)cc1-c1ccccc1 [Compound 15, (R)-4-oxo-1-pentyl-6-phenyl-N-3-(1-(1,2,3,4-tetrahydronaphthyl))-1,4-dihydropyridine-3-carboxamide] | 10.1 ± 1.1 nM | 139 °C | inverse agonists | < 62% | 1.9 ± 0.4 nM | 42 ± 2% | 
CCCCCn1cc(C(=O)N[C@H]2CCCc3ccccc32)c(=O)cc1-c1ccccc1 [Compound 16, (S)-4-oxo-1-pentyl-6-phenyl-N-3-(1-(1,2,3,4-tetrahydronaphthyl))-1,4-dihydropyridine-3-carboxamide] | 369 ± 41 nM | 139 °C | inverse agonists | < 62% | 60 ± 16 nM | 48 ± 3% | 
CCCCCn1cc(C(=O)NN2CCCCC2)c(=O)cc1-c1ccccc1 [Compound 17, 4-oxo-1-pentyl-6-phenyl-N-3-(piperidin-1-yl)-1,4-dihydropyridine-3-carboxamide] | 92 ± 7 nM | 122 °C | inverse agonists | < 62% | 26 ± 6 nM | 48 ± 2% | 
CCCCCn1cc(C(=O)NC23CC4CC(CC(C4)C2)C3)c(=O)cc1-c1ccc(Cl)cc1 [Compound 18, N3-(1-Adamantyl)-6-(4-chlorophenyl)-1-pentyl-4-oxo-1,4-dihydropyridine-3-carboxamide] | 79 ± 7 nM | 190 °C |  |  |  |  | 
CCCCCn1cc(C(=O)NC2CCCCC2)c(=O)cc1-c1ccc(Cl)cc1 [Compound 19, 6-(4-Chlorophenyl)-N-3-cyclohexyl-4-oxo-1-pentyl-1,4-dihydropyridine-3-carboxamide] | 78 ± 9 nM | 157 °C | inverse agonists | < 62% | 22 ± 4 nM | 39 ± 2% | 
CCCCCn1cc(C(=O)NC23CC4CC(CC(C4)C2)C3)c(=O)cc1C(C)(C)C [Compound 20, N3-(1-Adamantyl)-6-tert-butyl-1-pentyl-4-oxo-1,4-dihydropyridine-3-carboxamide] | 29 ± 3 nM |  | agonists | > 135% | 12.2 ± 2.5 nM | 212 ± 3% | MPO activity in colon (neutrophils content) [3]: 10±3; TNF-alpha mRNA expression in colon [3]: 6±1; IL-1beta mRNA expression in colon [3]: 22±11; colitis macroscopic score (Wallace criteria, scale 0 to 10) [3]: 0.8±0.4; histological score (Ameho criteria, scale 0 to 6) [3]: 1.8±0.6; decrease in colitis macroscopic scores ([3]; vs TNBS only): 74%; decrease of IL-1beta level in colon ([3]; vs TNBS only): 99%; decrease of MPO activity ([3]; vs TNBS only): 50%; decrease of TNF-alpha level in colon ([3]; vs TNBS only): 79%; inhibition of colitis microscopic score ([3]; vs TNBS only): 51%
CCCCCn1cc(C(=O)NC2CCCCC2)c(=O)cc1C(C)(C)C [Compound 21, N3-(Cyclohexyl)-6-tert-butyl-1-pentyl-4-oxo-1,4-dihydropyridine-3-carboxamide] | 29 ± 3 nM | 91 °C |  |  |  |  | 
CCCCCn1cc(C(=O)NC23CC4CC(CC(C4)C2)C3)c(=O)cc1C [Compound 38, N3-(1-Adamantyl)-6-methyl-4-oxo-1-pentyl-1,4-dihydropyridine-3-carboxamide] | 20 ± 3 nM | 195 °C | agonists | > 135% | 5.5 ± 1.1 nM | 148 ± 2% | Ki ([1]; binding affinity (Ki) at the CB2 receptor): < 500 nM; MPO activity in colon (neutrophils content) [3]: 14±4; TNF-alpha mRNA expression in colon [3]: 18±4; IL-1beta mRNA expression in colon [3]: 385±192; colitis macroscopic score (Wallace criteria, scale 0 to 10) [3]: 1.8±0.7; histological score (Ameho criteria, scale 0 to 6) [3]: 2.5±0.8; decrease in colitis macroscopic scores ([3]; vs TNBS only): 42%; decrease of MPO activity ([3]; vs TNBS only): 34%
CCCCCn1cc(C(=O)NC23CC4CC(CC(C4)C2)C3)c(=O)c(I)c1C [Compound 52, N3-(1-Adamantyl)-5-iodo-6-methyl-4-oxo-1-pentyl-1,4-dihydropyridine-3-carboxamide] | 9 ± 1.6 nM |  |  |  |  |  | Ki [1, 7]: < 500 nM
JWH-133 [reference compound] |  |  |  |  |  |  | colitis macroscopic score (Wallace criteria, scale 0 to 10) [3]: 2.1±0.6; histological score (Ameho criteria, scale 0 to 6) [3]: induced a decrease of histological scores; decrease in colitis macroscopic scores ([3]; vs TNBS only): 34%

Source: patent publication US20120149735A1, “1,4-Dihydropyridine Derivatives and Their Uses” (CENTRE HOSPITALIER REGIONAL UNIVERSITAIRE DE LILLE, priority 2009, published 2012)
